Test results as given in paper PMC4657098, “A Review of the Updated Pharmacophore for the Alpha 5 GABA(A) Benzodiazepine Receptor Model” (International Journal of Medicinal Chemistry, 2015).
Where “and” joins values, the source holds several entries; their conditions need not be identical. Equal entries are not always repeated. Where two headings read alike, the source gives them in different places.

Columns and labels:
α6β3γ2 GABAA/BzR = α6β3γ2 GABAA/BzR (Homo sapiens, UniProt P18507+Q16445); assay: Competition binding to HEK cell membranes, α6β3γ2; design: expressed in transfected cells
α5β3γ2 GABAA/BzR = α5β3γ2 GABAA/BzR (Homo sapiens, UniProt P18507+P31644); assay: Competition binding to HEK cell membranes, α5β3γ2; design: expressed in transfected cells
α1β3γ2 GABAA/BzR = α1β3γ2 GABAA/BzR (Homo sapiens, UniProt P14867+P18507); assay: Competition binding to HEK cell membranes, α1β3γ2; design: expressed in transfected cells
α3β3γ2 GABAA/BzR = α3β3γ2 GABAA/BzR (Homo sapiens, UniProt P18507+P34903); assay: Competition binding to HEK cell membranes, α3β3γ2; design: expressed in transfected cells
α2β3γ2 GABAA/BzR = α2β3γ2 GABAA/BzR (Homo sapiens, UniProt P18507+P47869); assay: Competition binding to HEK cell membranes, α2β3γ2; design: expressed in transfected cells
α4β3γ2 GABAA/BzR = biological target: T1, α4β3γ2 GABAA/BzR (Homo sapiens, UniProt P18507+P48169); assay: biochemical; assay type: binding; conditions: read-out: Ki α4
T1 construct: expressed in transfected cells; host or cells: LTK cells (given for XLi-093 only)

| SMILES | Ki (α6β3γ2 GABAA/BzR; read-out: Ki α6) [nM] | Ki (α5β3γ2 GABAA/BzR; read-out: Ki α5) [nM] | Ki (α1β3γ2 GABAA/BzR; read-out: Ki α1) [nM] | Ki (α3β3γ2 GABAA/BzR; read-out: Ki α3) [nM] | Ki (α2β3γ2 GABAA/BzR; read-out: Ki α2) [nM] | other results |
| --- | --- | --- | --- | --- | --- | --- |
| CC(C)(C)OC(=O)c1ncn2c1[C@@H]1CCCN1C(=O)c1cc(-c3ccco3)ccc1-2 [JYI-06] | 5000 | 12.6 | 16.5 | 5000 | 5.48 | – |
| O=C(OCC(F)(F)F)c1ncn2c1CN=C(c1ccccc1F)c1cc(-c3ccco3)ccc1-2 [JYI-54] | 1890 | 57 | 2.89 | 6.7 | 172 | – |
| C#Cc1ccc2c(c1)C(c1ccccc1F)=NCc1c(C(=O)OCC(F)(F)F)ncn1-2 [JYI-59] | 5000 | 11.5 | 1.08 | 11.8 | 2.6 | – |
| C#Cc1ccc2c(c1)C(c1ccccc1F)=NCC(=O)N2 [JYI-60] | 5000 | 1.7 | 3.73 | 4.3 | 1.64 | – |
| Cc1nnc2n1-c1ccc(Br)cc1C(c1ccccc1F)=NC2 [JYI-64 (C17H12N4FBr)] | 5000 | 0.87 | 0.305 | 0.62 | 1.11 | – |
| Cc1nnc2n1-c1ccc(Br)cc1C(c1ccccc1F)=NC2 [JYI-64] | 5000 | 0.87 | 0.305 | 0.62 | 1.11 | – |
| c1ccc2c(c1)[nH]c1cnc3c4cccnc4[nH]c3c12 [LJD-III-15E] | 1000 | 70.8 | 1.93 | 19 | 14 | – |
| c1ccc2c(c1)[nH]c1c2ncc2[nH]c3ccccc3c21 [MLT-I-70] | 1000 | 40.3 | 1.1 | 1.1 | 1.2 | – |
| Fc1ccc2c(c1)[nH]c1c2ncc2[nH]c3ccccc3c21 [MLT-II-16] | 10000 | 260 | 5.05 | 18.4 | 10.4 | – |
| Oc1ccc2c(c1)[nH]c1c2ncc2[nH]c3ccccc3c21 [MLT-II-34] | 1000 | 158 | 7.04 | 22.3 | 15.9 | – |
| O=C(OC(C(F)(F)F)C(F)(F)F)c1ncn2c1C1CCCN1C(=O)c1ccccc1-2 (centres unmarked) [MMB-III-18] | – | 14 | – | 78 | 140 | Ki (α4β3γ2 GABAA/BzR): 3500 nM |
| CCCC(=O)c1cc2c(cn1)[nH]c1ccccc12 [MSA-IV-35] | 3000 | 995 | 2.1 | 21 | 16 | – |
| O=C1C2C=Nc3ccccc3C2=NN1c1ccccc1 (centres unmarked) [QH-II-090 (CGS-8216), reference compound] | – | – | – | – | – | Ki (α6β3γ2 GABAA/BzR; Ki α6): 46 nM and 17 nM; Ki (α5β3γ2 GABAA/BzR; Ki α5): 0.25 nM; Ki (α1β3γ2 GABAA/BzR; Ki α1): 0.13 nM and 0.05 nM; Ki (α3β3γ2 GABAA/BzR; Ki α3): 0.12 nM; Ki (α2β3γ2 GABAA/BzR; Ki α2): 0.08 nM |
| O=c1c2c[nH]c3ccccc3c-2nn1-c1ccccc1 [QH-II-090] | 17 | 0.25 | 0.05 | 0.12 | 0.08 | – |
| C#Cc1ccc2c(c1)C(=O)N(C)Cc1c(C(=O)OC(C)(C)C)ncn1-2 [RY-024] | 5.1 | 0.4 | 26.9 | 18.7 | 26.3 | – |
| CCOC(=O)c1ncoc1-c1ncn2c1C1CCN1C(=O)c1cc(Br)ccc1-2 (centres unmarked) [RY-062 (12)] | – | – | – | – | – | Ki (α6β3γ2 GABAA/BzR; Figure 5, read-out: Ki α6): > 2000 nM; Ki (α5β3γ2 GABAA/BzR; Figure 5, read-out: Ki α5): 172 nM; Ki (α1β3γ2 GABAA/BzR; Figure 5, read-out: Ki α1): > 1000 nM; Ki (α3β3γ2 GABAA/BzR; Figure 5, read-out: Ki α3): > 500 nM; Ki (α2β3γ2 GABAA/BzR; Figure 5, read-out: Ki α2): > 1000 nM |
| CCOC(=O)c1ncoc1-c1ncn2c1C1CCN1C(=O)c1cc(C#C[Si](C)(C)C)ccc1-2 (centres unmarked) [RY-068 (11)] | – | – | – | – | – | Ki (α6β3γ2 GABAA/BzR; Figure 5, read-out: Ki α6): > 1000 nM; Ki (α5β3γ2 GABAA/BzR; Figure 5, read-out: Ki α5): 37 nM; Ki (α1β3γ2 GABAA/BzR; Figure 5, read-out: Ki α1): > 500 nM; Ki (α3β3γ2 GABAA/BzR; Figure 5, read-out: Ki α3): 496 nM; Ki (α2β3γ2 GABAA/BzR; Figure 5, read-out: Ki α2): 877 nM |
| C#Cc1ccc2c(c1)C(=O)N1CCC1c1c(-c3ocnc3C(=O)OCC)ncn1-2 (centres unmarked) [RY-069 (13)] | – | – | – | – | – | Ki (α6β3γ2 GABAA/BzR; Figure 5, read-out: Ki α6): > 1000 nM; Ki (α5β3γ2 GABAA/BzR; Figure 5, read-out: Ki α5): 19 nM; Ki (α1β3γ2 GABAA/BzR; Figure 5, read-out: Ki α1): 692 nM; Ki (α3β3γ2 GABAA/BzR; Figure 5, read-out: Ki α3): 506 nM; Ki (α2β3γ2 GABAA/BzR; Figure 5, read-out: Ki α2): 622 nM |
| C#Cc1ccc2c(c1)C(=O)N1CCC1c1c(-c3ocnc3C(=O)OCC)ncn1-2 (centres unmarked) [RY-069] | – | – | – | – | – | Ki (α6β3γ2 GABAA/BzR; Ki α6): 1000 nM; Ki (α5β3γ2 GABAA/BzR; Ki α5): 19 nM; Ki (α1β3γ2 GABAA/BzR; Ki α1): 692 nM; Ki (α3β3γ2 GABAA/BzR; Ki α3): 506 nM; Ki (α2β3γ2 GABAA/BzR; Ki α2): 622 nM |
| Cc1nnc2n1-c1ccc(Cl)cc1C(c1ccccc1)=NC2 [alprazolam, reference compound] | – | – | – | – | – | Ki (α6β3γ2 GABAA/BzR; Ki α6): 10000 nM and 1000 nM; Ki (α5β3γ2 GABAA/BzR; Ki α5): 1.54 nM; Ki (α1β3γ2 GABAA/BzR; Ki α1): 0.8 nM; Ki (α3β3γ2 GABAA/BzR; Ki α3): 1.43 nM; Ki (α2β3γ2 GABAA/BzR; Ki α2): 0.59 nM |
| C#Cc1ccc2c(c1)C(=O)N(C)Cc1c(C(=O)OCCCCCOC(=O)c3ncn4c3CN(C)C(=O)c3cc(C#C)ccc3-4)ncn1-2 [compound 56, 1,5-Bis(8-acetyleno-5,6-dihydro-5-methyl-6-oxo-4H-imidazo[1,5a][1,4]benzodiazepine-3-carboxy) pentyl diester] | – | – | – | – | – | Ki (α6β3γ2 GABAA/BzR; Ki α6): 54.2 nM; Ki (α5β3γ2 GABAA/BzR; Ki α5): 5.4 nM; Ki (α1β3γ2 GABAA/BzR; Ki α1): 231 nM; Ki (α3β3γ2 GABAA/BzR; Ki α3): 2670 nM; Ki (α2β3γ2 GABAA/BzR; Ki α2): 661 nM |
